Values after ≈ are worked out from the molar mass of the structure shown. Like-named read-outs stand apart in the source and are kept apart here.
Experiments:
[1] = molecular target: C-kinase (protein kinase C); experiment: C-Kinase inhibitory activity test; assay type: biochemical; settings: enzyme activity inhibited 50%
[2] = tested on: HeLaS3 cells; experiment: HeLaS3 cell growth inhibition test; assay type: cell-based; settings: Homo sapiens, read-out: cell growth inhibitory activity IC50, HeLaS3
Method: (§1) Compound (I) was examined for C-kinase inhibitory activity and cell growth inhibitory activity by the following method.
(§2) MCF 7 cells (4.5×10^4 cells/ml) prepared in RPMI 1640 medium containing 10% fetal calf serum, 10 μg/ml insulin and 10^-8 M estradiol are put into wells of a 96-well microtiter plate in the amount of 0.1 ml per each well. After incubation at 37° C. overnight in CO2 -incubator, 0.05 ml each of a test sample appropriately diluted with the culture medium is added to each well. In the case of contact for 72 hours, the cells are further cultured in CO2 -incubator, and then the culture supernatant is removed and the wells are washed once with PBS(-). Thereafter, 0.1 ml of fresh medium is added to each well, followed by culturing at 37° C. for 72 hours in CO2 -incubator. After the culture supernatant is removed, 0.1 ml of the culture medium containing 0.02% Neutral Red is added to each well, followed by culturing at 37° C. for one hour in CO2 -incubator, whereby the cells are stained. Then, the culture supernatant is removed and the cells are washed once with physiological saline. The pigment is extracted with 0.001N HCl/30% ethanol and absorption is measured at 550 nm with a microplate reader. By comparing the absorption of intact cells with those of the cells treated with a test compound in known concentrations, the concentration of the test compound at which growth of the cells is inhibited 50% is calculated as IC50.
(3) HeLaS3 cell growth inhibition test:
HeLaS3 cells (3×10^4 cells/ml) prepared in MEM medium containing 10% fetal calf serum and 2 mM glutamine are put into wells of a 96-well microtiter plate in the amount of 0.1 ml per each well.
Thereafter, the test is carried out in the same manner as in (1).

[3] = tested on: PC-10 cells; experiment: PC-10 cell growth inhibition test; assay type: cell-based; settings: Homo sapiens, read-out: cell growth inhibitory activity IC50, PC-10
Method: as §1, §2
(2) PC-10 cell growth inhibition test:
PC-10 cells (5×10^4 cells/ml) prepared in MEM medium containing 10% fetal calf serum and 2 mM glutamine are put into wells of a 96-well microtiter plate in the amount of 0.1 ml per each well.
Thereafter, the test is carried out in the same manner as in the MCF 7 cell growth inhibition test.

[4] = tested on: MCF 7 cells; experiment: MCF 7 cell growth inhibition test; assay type: cell-based; settings: Homo sapiens, read-out: cell growth inhibitory activity IC50, MCF-7
Method: as §1
(1) MCF 7 cell growth inhibition test:
as §2

[5] = tested on: COLO320DM cells; experiment: COLO320DM cell growth inhibition test; assay type: cell-based; settings: Homo sapiens, COLO 320DM, read-out: cell growth inhibitory activity IC50, COLO320DM
Method: as §2, with “After” for “MCF 7 cells (4.5×10^4 cells/ml) prepared in RPMI 1640 medium containing 10% fetal calf serum, 10 μg/ml insulin and 10^-8 M estradiol are put into wells of a 96-well microtiter plate in the amount of 0.1 ml per each well. After”, “reader.” for “reader. By comparing the absorption of intact cells with those of the cells treated with a test compound in known concentrations, the concentration of the test compound at which growth of the cells is inhibited 50% is calculated as IC50.”
(4) COLO320DM cell growth inhibition test:
Thereafter, the test is carried out in the same manner as in (1) except that the cells are counted with a microcell counter.

[6] = tested on: histamine release; settings: literature, in words; cited from earlier work
[7] = literature, in words; cited from earlier work
[8] = literature, in words; cited from earlier work; remark: listed apart in the source
[9] = tested on: C-kinase; settings: literature, in words; cited from earlier work
[10] = HeLa S3, HeLaS3 cells, contact for 72 hours
[11] = PC10, PC-10 cells, contact for 72 hours
[12] = MCF7, MCF-7 cells, contact for 72 hours
[13] = COLO320DM cells, cells counted with a microcell counter

C-Kinase inhibitory activity IC50 [1] [µg/mL] | IC50 [2, 10] [µg/mL] | Compound | IC50 [3, 11] [µg/mL] | other results
0.005 | 0.59 (≈ 1.26 µM) | C[C@]12O[C@H](C[C@]1(O)C(=O)NO)n1c3ccccc3c3c4c(c5c6ccccc6n2c5c31)CNC4=O (relative stereo) [Compound 1] | 0.14 (≈ 0.299 µM) | 
0.003 | 0.22 (≈ 0.486 µM) | C[C@]12O[C@H](C[C@]1(O)C(N)=O)n1c3ccccc3c3c4c(c5c6ccccc6n2c5c31)CNC4=O (relative stereo) [Compound 2] | 0.03 (≈ 0.0663 µM) | 
0.018 | 0.95 (≈ 1.91 µM) | C[C@]12O[C@H](C[C@]1(O)C(=O)NCCO)n1c3ccccc3c3c4c(c5c6ccccc6n2c5c31)CNC4=O (relative stereo) [Compound 3] | 0.68 (≈ 1.37 µM) | 
0.06 | 0.44 (≈ 0.947 µM) | C[C@]12O[C@H](C[C@]1(O)CN=[N+]=[N-])n1c3ccccc3c3c4c(c5c6ccccc6n2c5c31)CNC4=O (relative stereo) [Compound 29] | 0.71 (≈ 1.53 µM) | 
0.015 | 0.07 (≈ 0.16 µM) | C[C@]12O[C@H](C[C@]1(O)CN)n1c3ccccc3c3c4c(c5c6ccccc6n2c5c31)CNC4=O (relative stereo) [Compound 30] | 0.04 (≈ 0.0912 µM) | 
 |  | COC(=O)[C@@]1(O)C[C@H]2O[C@]1(C)n1c3ccccc3c3c4c(c5c6ccccc6n2c5c31)C(=O)NC4 (relative stereo) [Compound K-252] |  | activity to inhibit histamine release [6]: activity to inhibit histamine release; anti-allergic activity [7]: anti-allergic activity; antibacterial activity [8]: antibacterial substances
 |  | C[C@]12O[C@H](C[C@]1(O)C(=O)O)n1c3ccccc3c3c4c(c5c6ccccc6n2c5c31)CNC4=O (relative stereo) [KT-5556] |  | activity to inhibit histamine release [6]: activity to inhibit histamine release; antibacterial activity [8]: antibacterial substances
0.11 | 0.55 (≈ 1.17 µM) | CSCC1(O)CC2OC1(C)n1c3ccccc3c3c4c(c5c6ccccc6n2c5c31)C(=O)NC4 (centres unmarked) [Compound 45] | > 1 | 
0.06 | > 1 | C[S+]([O-])CC1(O)CC2OC1(C)n1c3ccccc3c3c4c(c5c6ccccc6n2c5c31)C(=O)NC4 (centres unmarked) [Compound 46] | 0.27 (≈ 0.556 µM) | 
0.015 | 0.28 (≈ 0.581 µM) | CC12OC(CC13COC(=S)O3)n1c3ccccc3c3c4c(c5c6ccccc6n2c5c31)CNC4=O (centres unmarked) [Compound 54] | 0.11 (≈ 0.228 µM) | IC50 [4, 12]: 1 µg/mL (≈ 2.08 µM); IC50 [5, 13]: 0.08 µg/mL (≈ 0.166 µM)
0.038 | 0.14 (≈ 0.288 µM) | CC12OC(CC13COS(=O)O3)n1c3ccccc3c3c4c(c5c6ccccc6n2c5c31)CNC4=O (centres unmarked) [Compound 55] | 0.64 (≈ 1.32 µM) | 
0.02 | 0.04 (≈ 0.0861 µM) | CC12OC(CC13CNC(=O)O3)n1c3ccccc3c3c4c(c5c6ccccc6n2c5c31)CNC4=O (centres unmarked) [Compound 57] | 0.1 (≈ 0.215 µM) | IC50 [4, 12]: 0.15 µg/mL (≈ 0.323 µM); IC50 [5, 13]: 0.37 µg/mL (≈ 0.797 µM)
0.017 | 0.28 (≈ 0.583 µM) | CC12OC(CC13CNC(=S)O3)n1c3ccccc3c3c4c(c5c6ccccc6n2c5c31)CNC4=O (centres unmarked) [Compound 58] | 0.69 (≈ 1.44 µM) | 
 |  | NCCCCCCNS(=O)(=O)c1cccc2c(Cl)cccc12 [Compound W-7, N-(6-aminohexy)-5-chloro-1-naphthalenesulfonamide] |  | C-kinase inhibitory activity [9]: low
 |  | CN[C@@H]1C[C@H]2O[C@@](C)([C@@H]1OC)n1c3ccccc3c3c4c(c5c6ccccc6n2c5c31)C(=O)NC4 [Staurosporine] |  | antibacterial activity [8]: antibacterial activity
 |  | CN(C)CCCN1c2ccccc2Sc2ccc(Cl)cc21 [chlorpromazine] |  | C-kinase inhibitory activity [9]: low
 |  | ClCCN(Cc1ccccc1)Cc1ccccc1 [dibenamine] |  | C-kinase inhibitory activity [9]: low
 |  | CCCCNc1ccc(C(=O)OCCN(C)C)cc1 [tetracaine] |  | C-kinase inhibitory activity [9]: low
 |  | CN1CCN(CCCN2c3ccccc3Sc3ccc(C(F)(F)F)cc32)CC1 [trifluoperazine] |  | C-kinase inhibitory activity [9]: low

Compound | C-Kinase inhibitory activity IC50 [1] [µg/mL] | IC50 [2, 10] [µg/mL] | IC50 [3, 11] [µg/mL] | other results
CCOC(=O)[C@@]1(O)C[C@H]2O[C@]1(C)n1c3ccccc3c3c4c(c5c6ccccc6n2c5c31)C(=O)NC4 (relative stereo) [Compound 4] | 0.13 | 0.6 (≈ 1.25 µM) | > 1 | 
COC(=O)[C@@]1(O)C[C@H]2O[C@]1(C)n1c3ccccc3c3c4c(c5c6ccccc6n2c5c31)C(=O)N(Cl)C4 (relative stereo) [Compound 5] | 0.034 | 0.51 (≈ 1.02 µM) | 0.84 (≈ 1.67 µM) | 
COC(=O)[C@@]1(O)C[C@H]2O[C@]1(C)n1c3ccccc3c3c4c(c5c6cc(Br)ccc6n2c5c31)C(=O)NC4 (relative stereo) [Compound 7] | 0.028 | 0.15 (≈ 0.275 µM) | 0.76 (≈ 1.39 µM) | 
COC(=O)[C@@]1(O)C[C@H]2O[C@]1(C)n1c3ccccc3c3c4c(c5c6cc(O)ccc6n2c5c31)C(=O)NC4 (relative stereo) [Compound 15] | 0.009 |  |  | IC50 ([2]; HeLa S3, 72 h): 0.48 µg/mL (≈ 0.993 µM); IC50 ([3]; PC10, 72 h): 0.11 µg/mL (≈ 0.228 µM)
C[C@]12O[C@H](C[C@]1(O)CO)n1c3ccccc3c3c4c(c5c6ccccc6n2c5c31)CNC4=O (relative stereo) [Compound 20] | 0.02 |  |  | IC50 ([2]; HeLa S3, 72 h): 0.07 µg/mL (≈ 0.159 µM); IC50 ([3]; PC10, 72 h): 0.11 µg/mL (≈ 0.25 µM); IC50 ([4]; MCF7, 72 h): 0.55 µg/mL (≈ 1.25 µM); IC50 [5]: 0.05 µg/mL (≈ 0.114 µM)
CC12OC(CC1O)n1c3ccccc3c3c4c(c5c6ccccc6n2c5c31)CNC4=O (centres unmarked) [Compound 48] | 0.022 |  |  | IC50 ([2]; HeLa S3, 72 h): 0.72 µg/mL (≈ 1.76 µM); IC50 ([3]; PC10, 72 h): 0.48 µg/mL (≈ 1.17 µM)
